# Species on record: Rattus norvegicus
# Test: Open TG-GATES - Regimen: Single
# Type: toxicity, organism-based, Sprague-Dawley
# Parameters: regimen Single, gender Male, age 6 weeks
# Settings: in vivo, po, 0 mg/kg, route gavage, dose level Control; for APTT / Bas / Eos / Fbg / Hb / Ht / Lym / MCH / MCHC / MCV / Mono / Neu / Plat / RBC / Ret / WBC: tissue Blood; for KIDNEY_L / KIDNEY_R / KIDNEY_TOTAL: tissue Kidney; for LIVER: tissue Liver; for ALP / ALT / AST / BUN / CRE / Ca / Cl / DBIL / GLC / IP / K / LDH / Na / PL / RALB / TBIL / TC / TG / TP / gamma-GTP: tissue Plasma
structure (smiles),measurement,setting,value
CC(=O)Oc1ccccc1C(=O)O [ASPIRIN],TERMINAL_BW,3 h,221 g
same,APTT,3 h,17.5 s
same,Bas,3 h,0.2%
same,Eos,3 h,1.2%
same,Fbg,3 h,226.6 mg/dL
same,Hb,3 h,13.4 g/dL
same,Ht,3 h,37.1%
same,Lym,3 h,75.4%
same,MCH,3 h,22 pg
same,MCHC,3 h,36.1%
same,MCV,3 h,60.8 fL
same,Mono,3 h,2.2%
same,Neu,3 h,20%
same,Plat,3 h,118.6 x10_4/uL
same,RBC,3 h,611.4 x10_4/ul
same,Ret,3 h,8%
same,WBC,3 h,87.8 x10_2/uL
same,KIDNEY_L,3 h,1 g
same,KIDNEY_R,3 h,1 g
same,KIDNEY_TOTAL,3 h,2 g
same,LIVER,3 h,9.9 g
same,ALP,3 h,895.2 IU/L
same,ALT,3 h,34.8 IU/L
same,AST,3 h,72.4 IU/L
same,BUN,3 h,9.8 mg/dL
same,CRE,3 h,0.4 mg/dL
same,Ca,3 h,10.7 mg/dL
same,Cl,3 h,103.8 meq/L
same,DBIL,3 h,0.066 mg/dL
same,GLC,3 h,198.2 mg/dL
same,IP,3 h,9.6 mg/dL
same,K,3 h,3.9 meq/L
same,LDH,3 h,186.2 IU/L
same,Na,3 h,142.4 meq/L
same,PL,3 h,138.4 mg/dL
same,RALB,3 h,3.4 g/dL
same,TBIL,3 h,0.1 mg/dL
same,TC,3 h,77 mg/dL
same,TG,3 h,48.8 mg/dL
same,TP,3 h,5.5 g/dL
same,gamma-GTP,3 h,1.2 IU/L
same,TERMINAL_BW,6 h,217.3 g
same,APTT,6 h,17.7 s
same,Bas,6 h,0%
same,Eos,6 h,0.8%
same,Fbg,6 h,235 mg/dL
same,Hb,6 h,13.9 g/dL
same,Ht,6 h,38.3%
same,Lym,6 h,77.2%
same,MCH,6 h,22 pg
same,MCHC,6 h,36.3%
same,MCV,6 h,60.5 fL
same,Mono,6 h,2.4%
same,Neu,6 h,18.4%
same,Plat,6 h,131.2 x10_4/uL
same,RBC,6 h,632.8 x10_4/ul
same,Ret,6 h,7.8%
same,WBC,6 h,104.9 x10_2/uL
same,KIDNEY_L,6 h,0.9 g
same,KIDNEY_R,6 h,0.9 g
same,KIDNEY_TOTAL,6 h,1.9 g
same,LIVER,6 h,9 g
same,ALP,6 h,815 IU/L
same,ALT,6 h,32 IU/L
same,AST,6 h,68.4 IU/L
same,BUN,6 h,9 mg/dL
same,CRE,6 h,0.4 mg/dL
same,Ca,6 h,10.6 mg/dL
same,Cl,6 h,103.2 meq/L
same,DBIL,6 h,0.07 mg/dL
same,GLC,6 h,185.8 mg/dL
same,IP,6 h,9.5 mg/dL
same,K,6 h,3.8 meq/L
same,LDH,6 h,208.8 IU/L
same,Na,6 h,141.2 meq/L
same,PL,6 h,139.2 mg/dL
same,RALB,6 h,3.4 g/dL
same,TBIL,6 h,0.1 mg/dL
same,TC,6 h,80.4 mg/dL
same,TG,6 h,62.8 mg/dL
same,TP,6 h,5.5 g/dL
same,gamma-GTP,6 h,1 IU/L
same,TERMINAL_BW,9 h,214.9 g
same,APTT,9 h,17.3 s
same,Bas,9 h,0%
same,Eos,9 h,0.8%
same,Fbg,9 h,224 mg/dL
same,Hb,9 h,14 g/dL
same,Ht,9 h,38.7%
same,Lym,9 h,80.2%
same,MCH,9 h,22.2 pg
same,MCHC,9 h,36.3%
same,MCV,9 h,61.1 fL
same,Mono,9 h,2.4%
same,Neu,9 h,15.2%
same,Plat,9 h,121.8 x10_4/uL
same,RBC,9 h,632.8 x10_4/ul
same,Ret,9 h,8%
same,WBC,9 h,88.9 x10_2/uL
same,KIDNEY_L,9 h,0.9 g
same,KIDNEY_R,9 h,0.9 g
same,KIDNEY_TOTAL,9 h,1.8 g
same,LIVER,9 h,8.6 g
same,ALP,9 h,795.2 IU/L
same,ALT,9 h,31.2 IU/L
same,AST,9 h,64.8 IU/L
same,BUN,9 h,9.4 mg/dL
same,CRE,9 h,0.4 mg/dL
same,Ca,9 h,10.4 mg/dL
same,Cl,9 h,104 meq/L
same,DBIL,9 h,0.066 mg/dL
same,GLC,9 h,206.6 mg/dL
same,IP,9 h,10 mg/dL
same,K,9 h,3.8 meq/L
same,LDH,9 h,205.6 IU/L
same,Na,9 h,141.4 meq/L
same,PL,9 h,128.6 mg/dL
same,RALB,9 h,3.4 g/dL
same,TBIL,9 h,0.1 mg/dL
same,TC,9 h,69.2 mg/dL
same,TG,9 h,46.2 mg/dL
same,TP,9 h,5.6 g/dL
same,gamma-GTP,9 h,1.2 IU/L
same,TERMINAL_BW,24 h,234.6 g
same,APTT,24 h,18.4 s
same,Bas,24 h,0.8%
same,Eos,24 h,1%
same,Fbg,24 h,222.8 mg/dL
same,Hb,24 h,13.8 g/dL
same,Ht,24 h,37.7%
same,Lym,24 h,77.2%
same,MCH,24 h,22.6 pg
same,MCHC,24 h,36.6%
same,MCV,24 h,61.7 fL
same,Mono,24 h,2.8%
same,Neu,24 h,17.8%
same,Plat,24 h,132 x10_4/uL
same,RBC,24 h,611.8 x10_4/ul
same,Ret,24 h,7.1%
same,WBC,24 h,109.6 x10_2/uL
same,KIDNEY_L,24 h,1 g
same,KIDNEY_R,24 h,1 g
same,KIDNEY_TOTAL,24 h,2 g
same,ALP,24 h,1023.4 IU/L
same,ALT,24 h,39 IU/L
same,AST,24 h,72.4 IU/L
same,BUN,24 h,15.8 mg/dL
same,CRE,24 h,0.4 mg/dL
same,Ca,24 h,10.6 mg/dL
same,Cl,24 h,103.6 meq/L
same,DBIL,24 h,0.062 mg/dL
same,GLC,24 h,204.2 mg/dL
same,IP,24 h,7.8 mg/dL
same,K,24 h,3.9 meq/L
same,LDH,24 h,207.2 IU/L
same,Na,24 h,141.2 meq/L
same,PL,24 h,153.4 mg/dL
same,RALB,24 h,3.5 g/dL
same,TBIL,24 h,0.1 mg/dL
same,TC,24 h,74 mg/dL
same,TG,24 h,124.4 mg/dL
same,TP,24 h,5.6 g/dL
same,gamma-GTP,24 h,1.2 IU/L

# — ChEMBL document CHEMBL3885861, “Open TG-GATES”
